From ChEMBL document CHEMBL1130931, “Synthesis and structure-activity relationships of 7-(2-aminoalkyl)morpholinoquinolones as anti-Helicobacter pylori agents” (1998)
≈ marks a conversion by molar mass, not a printed value.

Experiments:
Type in all cases: functional
[1] = test system: Helicobacter pylori; assay: In vitro minimum inhibitory concentration against growth of Helicobacter pylori ATCC 43504.
[2] = test system: Gerbillinae; assay: The ratio of the number of Mongolian gerbils in which Helicobacter pylori was not detected to that of Mongolian gerbils tested (percent) was represented as clearance rate at 1 mg/kg dose
[3] = test system: Gerbillinae; assay: The ratio of the number of Mongolian gerbils in which Helicobacter pylori was not detected to that of Mongolian gerbils tested (percent) was represented as clearance rate at 0.3 mg/kg dose
[4] = test system: Gerbillinae; assay: The ratio of the number of Mongolian gerbils in which Helicobacter pylori was not detected to that of Mongolian gerbils tested (percent) was represented as clearance rate
[5] = test system: Gerbillinae; assay: The ratio of the number of Mongolian gerbils in which Helicobacter pylori was not detected to that of Mongolian gerbils tested (percent) was represented as clearance rate at 30 mg/kg dose
[6] = test system: Gerbillinae; assay: The ratio of the number of Mongolian gerbils in which Helicobacter pylori was not detected to that of Mongolian gerbils tested (percent) was represented as clearance rate at 10 mg/kg dose
[7] = test system: Gerbillinae; assay: The ratio of the number of Mongolian gerbils in which Helicobacter pylori was not detected to that of Mongolian gerbils tested (percent) was represented as clearance rate at 3 mg/kg dose

With `COc1c(N2CCO[C@H](CN(C)C)C2)c(F)cc2c(=O)c(C(=O)O)cn(C3CC3)c12` the MIC [1] was 0.39 µg/mL (≈ 0.93 µM).
`COc1c(N2CCO[C@@H](CN(C)C)C2)c(F)cc2c(=O)c(C(=O)O)cn(C3CC3)c12` gave a Ratio [2] of 100%, a Ratio [3] of 0% and an MIC [1] of 0.012 µg/mL (≈ 0.0286 µM).
`CNCC1CN(c2c(F)cc3c(=O)c(C(=O)O)cn(C4CC4)c3c2F)CCO1` (configuration not stated) showed an MIC [1] of 0.05 µg/mL (≈ 0.127 µM).
`CCNCC1CN(c2c(F)cc3c(=O)c(C(=O)O)cn(C4CC4)c3c2F)CCO1` (configuration not stated) gave an MIC [1] of 0.05 µg/mL (≈ 0.123 µM).
In the case of `NCCC1CN(c2c(F)cc3c(=O)c(C(=O)O)cn(C4CC4)c3c2F)CCO1` (configuration not stated), the MIC [1] is reported as 0.2 µg/mL (≈ 0.508 µM).
Compound `NCC1CN(c2c(F)cc3c(=O)c(C(=O)O)cn(C4CC4)c3c2F)CCO1` (configuration not stated) has a Ratio [4] of 80% and an MIC [1] of 0.05 µg/mL (≈ 0.132 µM).
`CN(C)CC1CN(c2c(F)cc3c(=O)c(C(=O)O)cn(C4CC4)c3c2F)CCO1` (configuration not stated) showed an MIC [1] of 0.025 µg/mL (≈ 0.0614 µM).
In the case of `CC(=O)NCC1CN(c2c(F)cc3c(=O)c(C(=O)O)cn(C4CC4)c3c2F)CCO1` (configuration not stated), the MIC [1] is reported as 0.78 µg/mL (≈ 1.85 µM).
`CN(C)CC1CN(c2c(F)cc3c(=O)c(C(=O)O)cn(C4CC4)c3c2Cl)CCO1` (configuration not stated) gave an MIC [1] of 0.05 µg/mL (≈ 0.118 µM).
`COc1c(N2CCOC(CN(C)C)C2)c(F)cc2c(=O)c(C(=O)O)cn(C3CC3)c12` (configuration not stated) was tested, and the MIC [1] was 0.025 µg/mL (≈ 0.0596 µM).
Compound `CCCNCC1CN(c2c(F)cc3c(=O)c(C(=O)O)cn(C4CC4)c3c2F)CCO1` (configuration not stated) has an MIC [1] of 0.39 µg/mL (≈ 0.925 µM).
`CCN(CC)CC1CN(c2c(F)cc3c(=O)c(C(=O)O)cn(C4CC4)c3c2F)CCO1` (configuration not stated) was tested, and the MIC [1] was 0.2 µg/mL (≈ 0.459 µM).
`CN(C)CC1CN(c2cc3c(cc2F)c(=O)c(C(=O)O)cn3C2CC2)CCO1` (configuration not stated) was tested, and the MIC [1] was 0.1 µg/mL (≈ 0.257 µM).
`CC1(C)S[C@@H]2[C@H](NC(=O)[C@H](N)c3ccc(O)cc3)C(=O)N2[C@H]1C(=O)O` [AMOXICILLIN] showed an MIC [1] of 0.025 µg/mL (≈ 0.0684 µM).
With `CC[C@H]1OC(=O)[C@H](C)[C@@H](O[C@H]2C[C@@](C)(OC)[C@@H](O)[C@H](C)O2)[C@H](C)[C@@H](O[C@@H]2O[C@H](C)C[C@H](N(C)C)[C@H]2O)[C@](C)(OC)C[C@@H](C)C(=O)[C@H](C)[C@@H](O)[C@]1(C)O` [CLARITHROMYCIN] the Ratio [5] was 100%, the Ratio [6] was 0% and the MIC [1] was 0.025 µg/mL (≈ 0.0334 µM).
With `C[C@H]1COc2c(N3CCN(C)CC3)c(F)cc3c(=O)c(C(=O)O)cn1c23.C[C@H]1COc2c(N3CCN(C)CC3)c(F)cc3c(=O)c(C(=O)O)cn1c23.O` [LEVOFLOXACIN] the Ratio [7] was 0%, the Ratio [6] was 60% and the MIC [1] was 0.2 µg/mL.
`C[C@@H]1CN(c2c(F)c(N)c3c(=O)c(C(=O)O)cn(C4CC4)c3c2F)C[C@H](C)N1` [SPARFLOXACIN] gave a Ratio [4] of 0% and an MIC [1] of 0.2 µg/mL (≈ 0.51 µM).
For `NC1CCN(c2nc3c(cc2F)c(=O)c(C(=O)O)cn3-c2ccc(F)cc2F)C1` (configuration not stated) [TOSUFLOXACIN], the Ratio [4] was 0% and the MIC [1] was 0.39 µg/mL (≈ 0.965 µM).
